Assay [1] deals with T1, human NHE3 (Homo sapiens, UniProt P48764).
T1 sequence (P48764 26-834): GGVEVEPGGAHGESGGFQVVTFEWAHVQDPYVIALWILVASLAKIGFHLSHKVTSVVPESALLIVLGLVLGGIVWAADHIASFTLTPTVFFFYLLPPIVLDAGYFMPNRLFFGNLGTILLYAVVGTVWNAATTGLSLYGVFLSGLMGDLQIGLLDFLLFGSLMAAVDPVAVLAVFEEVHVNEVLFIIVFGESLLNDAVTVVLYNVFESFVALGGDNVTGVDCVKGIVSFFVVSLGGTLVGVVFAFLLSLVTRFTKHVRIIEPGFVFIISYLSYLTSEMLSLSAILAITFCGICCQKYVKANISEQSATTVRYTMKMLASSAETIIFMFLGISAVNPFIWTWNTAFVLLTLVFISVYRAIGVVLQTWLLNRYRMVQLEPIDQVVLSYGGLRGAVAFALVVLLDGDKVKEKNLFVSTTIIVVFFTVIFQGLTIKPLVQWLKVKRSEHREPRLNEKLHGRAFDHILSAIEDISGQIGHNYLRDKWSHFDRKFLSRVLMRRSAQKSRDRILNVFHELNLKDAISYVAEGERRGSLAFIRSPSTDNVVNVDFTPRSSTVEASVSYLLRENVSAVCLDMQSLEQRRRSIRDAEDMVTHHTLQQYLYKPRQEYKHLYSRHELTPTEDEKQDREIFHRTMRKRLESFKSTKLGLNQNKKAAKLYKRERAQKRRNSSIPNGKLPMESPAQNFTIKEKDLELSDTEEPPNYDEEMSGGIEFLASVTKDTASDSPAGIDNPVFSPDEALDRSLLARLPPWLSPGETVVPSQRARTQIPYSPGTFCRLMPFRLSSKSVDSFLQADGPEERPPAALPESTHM
The assay is described as follows: Cell-based assay of NHE-3 activity (human NHE3 inhibition assay). The conditions noted are these: OK cells with human NHE-3 gene, BCECF pH recovery, 0-30 μM test compound; read-out: Human NHE3 pIC50 (converted). Also on record: expressed in transfected cells; host or cells: Opossum kidney (OK) cells (ATCC), electroporated. Here is the method: Rat or human NHE-3-mediated Na^+-dependent H^+ antiport was measured using a modification of the pH sensitive dye method originally reported by Paradiso (Proc. Natl. Acad. Sci. USA. (1984) 81(23): 7436-7440). Opossum kidney (OK) cells were obtained from the ATCC and propagated per their instructions. The rat NHE-3 gene (GenBank M85300) or the human NHE-3 gene (GenBank NM_004174.1) was introduced into OK cells via electroporation, and cells were seeded into 96 well plates and grown overnight. Medium was aspirated from the wells, cells were washed twice with NaCl-HEPES buffer (100 mM NaCl, 50 mM HEPES, 10 mM glucose, 5 mM KCl, 2 mM CaCl2, 1 mM MgCl2, pH 7.4), then incubated for 30 min at room temperature with NH4Cl-HEPES buffer (20 mM NH4Cl, 80 mM NaCl, 50 mM HEPES, 5 mM KCl, 2 mM CaCl2, 1 mM MgCl2, pH 7.4) containing 5 μM bis(acetoxymethyl) 3,3′-(3′,6′-bis(acetoxymethoxy)-5-((acetoxymethoxy)carbonyl)-3-oxo-3H-spiro[isobenzofuran-1,9′-xanthene]-2′,7′-diyl)dipropanoate (BCECF-AM). Cells were washed twice with Ammonium free, Na^+-free HEPES (100 mM choline, 50 mM HEPES, 10 mM glucose, 5 mM KCl, 2 mM CaCl2, 1 mM MgCl2, pH 7.4) and incubated in the same buffer for 10 minutes at room temperature to lower intracellular pH. […] Initial rates were plotted as the average 2 or more replicates, and pIC50 values were estimated using GraphPad Prism.

For assay [2], the target named is T1, human NHE3. Put plainly: Cell-based assay of NHE-3 activity (pre-incubation inhibition), human. On the procedure:
Rat and human NHE-3-mediated Na^+-dependent H^+ antiport was measured using a modification of the pH sensitive dye method originally reported by Paradiso (Proc. Natl. Acad. Sci. USA. (1984) 81(23): 7436-7440, which is hereby incorporated by reference in its entirety). PS120 fibroblasts stably expressing human NHE3 were obtained from Mark Donowitz (Baltimore, Md.). Opossum kidney (OK) cells were obtained from the ATCC and propagated per their instructions. The rat NHE-3 gene (GenBank M85300) was introduced into OK cells via electroporation, and cells were seeded into 96 well plates and grown overnight. Medium was aspirated from the wells then incubated for 30 min at 37° C. with NH4Cl-HEPES buffer (20 mM NH4Cl, 80 mM NaCl, 50 mM HEPES, 5 mM KCl, 2 mM CaCl2, 1 mM MgCl2, pH 7.4) containing 5 μM BCECF-AM. Cells were washed once with Ammonium free, Nat-free HEPES (100 mM choline, 50 mM HEPES, 10 mM glucose, 5 mM KCl, 2 mM CaCl2, 1 mM MgCl2, pH 7.4) and incubated in the same buffer for 10 minutes at room temperature to lower intracellular pH with 0-30 μM test compound. […] Changes in intracellular pH were monitored using a FLIPR Tetra® (Molecular Devices, Sunnyvale, Calif.) by excitation at λex 439 to 505 nm, and measuring BCECF fluorescence at λem 538 nm. The initial rate of the fluorescence ratio change was used as a measure of NHE-mediated Na^+/H^+ activity, and reported as the change in fluorescence ratio per minute. Initial rates were plotted as the average 2 or more replicates, and pIC50 values were estimated using GraphPad Prism.

In assay [3] the target is T1, human NHE3. Put plainly: Cell-based assay of NHE-3 activity (persistent inhibition), human. The conditions noted are these: PS120 fibroblasts stably expressing human NHE3, 60 min incubation then washout. Here is the method:
The ability of compounds to inhibit human and rat NHE-3-mediated Na^+-dependent H^+ antiport after application and washout was measured using a modification of the pH sensitive dye method described above. PS120 fibroblasts stably expressing human NHE3 were obtained from Mark Donowitz (Baltimore, Md.). Opossum kidney (OK) cells were obtained from the ATCC and propagated per their instructions. The rat NHE-3 gene was introduced into OK cells via electroporation, and cells were seeded into 96 well plates and grown overnight. Medium was aspirated from the wells, cells were washed once with NaCl-HEPES buffer (100 mM NaCl, 50 mM HEPES, 10 mM glucose, 5 mM KCl, 2 mM CaCl2, 1 mM MgCl2, pH 7.4), then overlayed with NaCl-HEPES buffer containing 0-30 μM test compound. After a 60 min incubation at room temperature, the test drug containing buffer was aspirated from the cells. Following aspiration, cells were washed once with NaCl-HEPES buffer without drug, then incubated for 30 min at 37° C. with NH4Cl-HEPES buffer (20 mM NH4Cl, 80 mM NaCl, 50 mM HEPES, 5 mM KCl, 2 mM CaCl2, 1 mM MgCl2, pH 7.4) containing 5 μM BCECF-AM. Cells were washed once with Ammonium free, Na^+-free HEPES (100 mM choline, 50 mM HEPES, 10 mM glucose, 5 mM KCl, 2 mM CaCl2, 1 mM MgCl2, pH 7.4) and incubated in the same buffer for 10 minutes at room temperature to lower intracellular pH. NHE-3-mediated recovery of neutral intracellular pH was initiated (10 min after compound washout) by addition of Na-HEPES buffer. […] Changes in intracellular pH were monitored using a FLIPR Tetra® (Molecular Devices, Sunnyvale, Calif.) by excitation at λex 439 to 505 nm, and measuring BCECF fluorescence at λem 538 nm. The initial rate of the fluorescence ratio change was used as a measure of NHE-mediated Na^+/H^+ activity, and reported as the change in fluorescence ratio per minute. Initial rates were plotted as the average 2 or more replicates, and pIC50 values were estimated using GraphPad Prism.

Assay [4] concerns absorption of sodium from the intestinal lumen. Put plainly: Inhibition of intestinal sodium absorption: rat urinary sodium and fecal form 16 h post-dose. It counts as in vivo, Sprague-Dawley rats. The conditions noted are these: for response vs control in vivo at 3 mg/kg: oral gavage 3 mg/kg; for response vs control in vivo at 3 mg/kg / response vs control in vivo at 10 mg/kg: urine 16 h post-dose, read-out: uNa Result, uNa (% of vehicle); for FFS (fecal form score) / response vs control in vivo at 10 mg/kg: oral gavage 10 mg/kg; for FFS (fecal form score): 16 h post-dose, scale 1-5, group average. On the procedure:
Urinary sodium concentration and fecal form were measured to assess the ability of selected example compounds to inhibit the absorption of sodium from the intestinal lumen. Eight-week old Sprague-Dawley rats were purchased from Charles River Laboratories (Hollister, Calif.), were housed 2 per cage, and acclimated for at least 3 days before study initiation. Animals were fed Harlan Teklad Global 2018 rodent chow (Indianapolis, Ind.) and water ad libitum throughout the study and maintained in a standard light/dark cycle of 6 AM to 6 PM. On the day of the study, between 4 PM and 5 PM, a group of rats (n=6) were dosed via oral gavage with test compound or vehicle (water) at a volume of 10 mL/kg. After dose administration animals were placed in individual metabolic cages where they were also fed the same chow in meal form and watered ad libitum. At 16 h post-dose, the urine samples were collected and fecal form was assessed by two independent observations. Fecal forms were scored according to a common scale associated with increasing fecal water to the wettest observation in the cage's collection funnel (1, normal pellet; 2, pellet adhering to sides of collection funnel due to moisture; 3, loss of normal pellet shape; 4, complete loss of shape with a blotting pattern; 5, liquid fecal streams evident). A rat's fecal form score (FFS) was determined by averaging both observational scores for all rats within a group (n=6). The vehicle group average was 1. For urine samples, the volumes were determined gravimetrically and centrifuged at 3,600×g. The supernatants were diluted 100-fold in deionized Milli-Q water then filtered through a 0.2 μm GHP Pall AcroPrep filter plate (Pall Life Sciences, Ann Arbor, Mich.) prior to analysis by ion chromatography. Ten microliters of each filtered extract was injected onto a Dionex ICS-3000 ion chromatograph system (Dionex, Sunnyvale, Calif.). Cations were separated by an isocratic method using 25 mM methanesulfonic acid as the eluent on an IonPac CS12A 2 mm i.d.×250 mm, 8 μm particle size cation exchange column (Dionex). Sodium was quantified using standards prepared from a cation standard mix containing Li^+, Na^+, NH4^+, K^+, Mg^2+, and Ca^2+ (Dionex). The mean mass of sodium urinated for every group in the 16 h period was determined with the vehicle group usually urinating approximately 21 mg sodium. The urine Na (uNa) for rats in the test groups were expressed as a percentage of the vehicle mean and the means were compared to that of the vehicle group by utilizing a one-way analysis of variance coupled with a Dunnett's post hoc test.

Take `O=C(NCCCCNC(=O)NCCOCCOCCNS(=O)(=O)c1ccc(O[C@H]2c3cc(Cl)cc(Cl)c3C[C@@H]2N2CCCC2)cc1)NCCOCCOCCNS(=O)(=O)c1ccc(O[C@H]2c3cc(Cl)cc(Cl)c3C[C@@H]2N2CCCC2)cc1` [Example 17]: the IC50 on human NHE3 [1] was < 0.1 µM; on human NHE3 [2] (PS120 fibroblasts stably expressing human NHE3, 10 min pre-incubation with 0-30 μM test compound, read-out: pIC50 (human Preincubation assay) (converted)) it was < 0.1 µM; at human NHE3 [3] (read-out: pIC50 (human Persistence assay) (converted)), < 0.1 µM. Besides, on human NHE3 [2] (PS120 fibroblasts stably expressing human NHE3, pre-incubation with test compound), the “% inhibition (human Preincubation assay)” value is “C (>70%)”. Besides, at human NHE3 [3], the “% inhibition (human Persistence assay)” value is “C (>70%)”.

`CN(C)[C@H]1Cc2c(Cl)cc(Cl)cc2[C@@H]1Oc1ccc(S(=O)(=O)NCCOCCOCCNC(=O)CCC(C)(CCC(=O)NCCOCCOCCNS(=O)(=O)c2ccc(O[C@H]3c4cc(Cl)cc(Cl)c4C[C@@H]3N(C)C)cc2)NC(=O)CCC(=O)O)cc1` [Example 12, 1-(4-((1S,2S)-4,6-dichloro-2-(dimethylamino)-2,3-dihydro-1H-inden-1-yloxy)phenylsulfonamido)-13-(3-(2-(2-(2-(4-((1S,2S)-4,6-dichloro-2-(dimethylamino)-2,3-dihydro-1H-inden-1-yloxy)phenylsulfonamido)ethoxy)ethoxy)ethylamino)-3-oxopropyl)-13-methyl-10,15-dioxo-3,6-dioxa-9,14-diazaoctadecan-18-oic Acid]: at human NHE3 [1], the IC50 was < 0.1 µM. Further, the response vs control in vivo at 3 mg/kg in assay [4] was in the range of 35 to 75%.

For `CN(C)[C@H]1Cc2c(Cl)cc(Cl)cc2[C@@H]1Oc1ccc(S(=O)(=O)NCCOCCOCCNC(=O)Nc2ccc(NC(=O)NCCOCCOCCNS(=O)(=O)c3ccc(O[C@H]4c5cc(Cl)cc(Cl)c5C[C@@H]4N(C)C)cc3)cc2)cc1` [Example 27], at human NHE3 [1], the IC50 was < 0.1 µM. Further, in assay [4], the “FFS (fecal form score)” value stood at 1 and the response vs control in vivo at 10 mg/kg is < 35%.

On to `CN(C)[C@H]1Cc2c(Cl)cc(Cl)cc2[C@@H]1Oc1ccc(S(=O)(=O)NCCOCCOCCNC(=O)CCC(=O)NCCOCCOCCNS(=O)(=O)c2ccc(O[C@H]3c4cc(Cl)cc(Cl)c4C[C@@H]3N(C)C)cc2)cc1` [Example 8, N1,N4-bis(2-(2-(2-(4-((1S,2S)-4,6-dichloro-2-(dimethylamino)-2,3-dihydro-1H-inden-1-yloxy)phenylsulfonamido)ethoxy)ethoxy)ethyl)succinamide], for which, at human NHE3 [1], the IC50 is < 0.1 µM. For the same compound, in assay [4], the response vs control in vivo at 3 mg/kg is 35 to 75%.

Turning to `CC(N)(CCC(=O)NCCOCCOCCNS(=O)(=O)c1ccc(O[C@H]2c3ccccc3C[C@@H]2N2CCCCC2)cc1)CCC(=O)NCCOCCOCCNS(=O)(=O)c1ccc(O[C@H]2c3ccccc3C[C@@H]2N2CCCCC2)cc1` [Example 37], the IC50 at human NHE3 [1] was < 0.1 µM. In addition, in assay [4], the “FFS (fecal form score)” value is listed as 1 and the response vs control in vivo at 10 mg/kg lay in the range of 35 to 75%.
